Reference: patent US20250339569A1, “CARBONIC ANHYDRASE IX LIGANDS” (priority 2021, published 2025)
Starred links: 1 amine or outer side, 2 acyl side, 3 side chain; linkers in the order of their positions; H or OH if unused. Positions of bridges follow the written chain, without caps; N, C: chain ends. Non-standard residues stand in square brackets, D forms with d. Residues, ends and D or L forms follow the SMILES beside them. *: point of attachment. X25 = CC(=O)N[C@H](CCC(=O)O)C(=O)Nc1cccc(C[C@@H](N[*:1])C(=O)[*:2])c1; X32 = CC(=O)N[C@H](CC(=O)O)C(=O)Nc1cccc(C[C@@H](N[*:1])C(=O)[*:2])c1; X33 = CC(=O)N[C@@H](CC(=O)Nc1cccc(C[C@H](N[*:1])C(=O)[*:2])c1)C(=O)O; X9 = O=C(CC1NC(=O)NC1=O)Nc1cccc(C[C@H](N[*:1])C(=O)[*:2])c1; DOTA = O=C(O)CN1CCN(CC(=O)O)CCN(CC(=O)*)CCN(CC(=O)O)CC1; X15 = O=C(O)COCC(=O)Nc1cccc(C[C@H](N[*:1])C(=O)[*:2])c1; X6 = O=C(O)CCC(=O)Nc1cccc(C[C@H](N[*:1])C(=O)[*:2])c1; Benzoyl(4-SO2NH2) = NS(=O)(=O)c1ccc(C(=O)*)cc1; Propanoyl(3-SO2NH2) = NS(=O)(=O)CCC(=O)*; Phe(4-NH2) = Nc1ccc(C[C@H](N)C(=O)O)cc1; mXylylene = c1cc(C[*:1])cc(C[*:2])c1; X2 = O=C(CN1CCC(N[*:1])CC1)[*:2]; X29 = c1cc2cn[nH]c2cc1CN*; Dap = NC[C@H](N)C(=O)O

Key:
[1] = molecular target: T1, human carbonic anhydrase IX (hCAIX-Fc) (Homo sapiens, UniProt Q16790); assay: Surface plasmon resonance assay with hCAIX-Fc; format: binding; details: 25° C.; for t1/2 category (activity): SPR dissociation half-life, hCAIX-Fc; for Kd: SPR, hCAIX-Fc captured, read-out: pKD category (activity) (converted)
T1 construct: purchased SinoBliological (Sino Biological) 10107-H02H

[2] = molecular target: T2, CAIX-expressing human HT-29 colorectal cancer cells (Homo sapiens, UniProt Q16790); assay: FACS binding assay (IC50 determination, competition with tracer 3BP-2776 or 3BP-4149); details: FACS binding assay, HT-29 cells, competition with tracer 3BP-4149 (3 nM, Cy5-labeled), 4° C., 1 hour; read-out: pIC50 category (activity) (converted)
T2 construct: CAIX-expressing human HT-29 colorectal cancer cells; host or cells: HT-29 human colorectal cancer cells
In short: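 HT-29 cells in FACS buffer (PBS, 1% FCS) at 500.000 cells/ml were exposed to compounds competing with a labelled tracer, with biotinylated compounds detected by 1 μg/mL APC-streptavidin for 30 min on ice. APC/Cy5 median fluorescence was read by flow cytometry and IC50 derived by 4PL fit.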

Structure (SMILES)	t1/2 category (activity) [1]	Kd [1] [nM]	IC50 [2] [nM]
CC(=O)N[C@@H](CC(=O)Nc1cccc(C[C@@H]2NC(=O)[C@H](CC(=O)O)NC(=O)[C@H]3CCCN3C(=O)[C@H](CCC(=O)O)NC(=O)[C@@H](NC(=O)[C@H](Cc3ccc(O)cc3)NC(=O)[C@@H](NC(=O)CN3CCC(NC(=O)CN4CCN(CC(=O)O)CCN(CC(=O)O)CCN(CC(=O)O)CC4)CC3)C(C)C)CSCc3cccc(c3)CSC[C@@H](C(N)=O)NC(=O)[C@H](CO)NC(=O)[C@H](Cc3c[nH]c4ccccc34)NC(=O)[C@H]([C@@H](C)O)NC(=O)[C@H](CC(C)C)NC2=O)c1)C(=O)O [3BP-4363] ({DOTA}-[X2]VYCE[dP]D[X33]LTWSC-NH2; linker 4-13 via mXylylene)	B (t1/2 between 5.1 and 15.0 minutes)	< 10	10 to 79.4
CC(=O)N[C@H](CC(=O)O)C(=O)Nc1cccc(C[C@H]2NC(=O)[C@H](CC(=O)O)NC(=O)[C@H]3CCCN3C(=O)[C@H](CCC(=O)O)NC(=O)[C@@H](NC(=O)[C@H](Cc3ccc(O)cc3)NC(=O)[C@@H](NC(=O)CN3CCC(NC(=O)CN4CCN(CC(=O)O)CCN(CC(=O)O)CCN(CC(=O)O)CC4)CC3)C(C)C)CSCc3cccc(c3)CSC[C@@H](C(N)=O)NC(=O)[C@H](CO)NC(=O)[C@H](Cc3c[nH]c4ccccc34)NC(=O)[C@H]([C@@H](C)O)NC(=O)[C@H](CC(C)C)NC2=O)c1 [3BP-4364] ({DOTA}-[X2]VYCE[dP]D[X32]LTWSC-NH2; linker 4-13 via mXylylene)	B (t1/2 between 5.1 and 15.0 minutes)	< 10	10 to 79.4
CC(C)C[C@@H]1NC(=O)[C@H](Cc2cccc(NC(=O)CC3NC(=O)NC3=O)c2)NC(=O)[C@H](CC(=O)O)NC(=O)[C@H]2CCCN2C(=O)[C@H](CCC(=O)O)NC(=O)[C@@H](NC(=O)[C@H](Cc2ccc(O)cc2)NC(=O)[C@@H](NC(=O)CN2CCC(NC(=O)CN3CCN(CC(=O)O)CCN(CC(=O)O)CCN(CC(=O)O)CC3)CC2)C(C)C)CSCc2cccc(c2)CSC[C@@H](C(N)=O)NC(=O)[C@H](CO)NC(=O)[C@H](Cc2c[nH]c3ccccc23)NC(=O)[C@H]([C@@H](C)O)NC1=O (stereo partly drawn) [3BP-4371] ({DOTA}-[X2]VYCE[dP]D[X9]LTWSC-NH2; linker 4-13 via mXylylene)	C (t1/2 between 2.1 and 5.0 minutes)	< 10	10 to 79.4
CC(C)C[C@@H]1NC(=O)[C@H](Cc2cccc(NC(=O)CCC(=O)O)c2)NC(=O)[C@H](CC(=O)O)NC(=O)[C@H]2CCCN2C(=O)[C@H](CCC(=O)O)NC(=O)[C@@H]2CSCc3cccc(c3)CSC[C@@H](C(N)=O)NC(=O)[C@H](CNC(=O)C[C@H](NC(=O)[C@@H](NC(=O)CN3CCC(NC(=O)CN4CCN(CC(=O)O)CCN(CC(=O)O)CCN(CC(=O)O)CC4)CC3)C(C)C)C(=O)N2)NC(=O)[C@H](Cc2c[nH]c3ccccc23)NC(=O)[C@H]([C@@H](C)O)NC1=O [3BP-4377] ({DOTA}-[X2]VDCE[dP]D[X6]LTW[Dap]C-NH2; lactam 3-12; linker 4-13 via mXylylene)	A (t1/2>15.0 minutes)	< 10	< 10
CC(C)C[C@@H]1NC(=O)[C@H](Cc2ccc(NC(=O)c3ccc(S(N)(=O)=O)cc3)cc2)NC(=O)[C@H](CC(=O)O)NC(=O)[C@H]2CCCN2C(=O)[C@H](CCC(=O)O)NC(=O)[C@@H](NC(=O)[C@H](Cc2ccc(O)cc2)NC(=O)[C@@H](NC(=O)CN2CCC(NC(=O)CN3CCN(CC(=O)O)CCN(CC(=O)O)CCN(CC(=O)O)CC3)CC2)C(C)C)CSCc2cccc(c2)CSC[C@@H](C(N)=O)NC(=O)[C@H](CO)NC(=O)[C@H](Cc2c[nH]c3ccccc23)NC(=O)[C@H]([C@@H](C)O)NC1=O [3BP-4398] ({DOTA}-[X2]VYCE[dP]D[Phe(4-NH2)](Benzoyl(4-SO2NH2))LTWSC-NH2; linker 4-13 via mXylylene)	C (t1/2 between 2.1 and 5.0 minutes)	< 10	10 to 79.4
CC(C)C[C@@H]1NC(=O)[C@H](Cc2ccc(NC(=O)CCS(N)(=O)=O)cc2)NC(=O)[C@H](CC(=O)O)NC(=O)[C@H]2CCCN2C(=O)[C@H](CCC(=O)O)NC(=O)[C@@H](NC(=O)[C@H](Cc2ccc(O)cc2)NC(=O)[C@@H](NC(=O)CN2CCC(NC(=O)CN3CCN(CC(=O)O)CCN(CC(=O)O)CCN(CC(=O)O)CC3)CC2)C(C)C)CSCc2cccc(c2)CSC[C@@H](C(N)=O)NC(=O)[C@H](CO)NC(=O)[C@H](Cc2c[nH]c3ccccc23)NC(=O)[C@H]([C@@H](C)O)NC1=O [3BP-4400] ({DOTA}-[X2]VYCE[dP]D[Phe(4-NH2)](Propanoyl(3-SO2NH2))LTWSC-NH2; linker 4-13 via mXylylene)	A (t1/2>15.0 minutes)	< 10	< 10

Results, then the compound that gave them:

t1/2 category (activity) [1]	Kd [1] [nM]	IC50 [2] [nM]	Structure (SMILES)
B (t1/2 between 5.1 and 15.0 minutes)	< 10	10 to 79.4	CC(=O)N[C@H](CCC(=O)O)C(=O)Nc1cccc(C[C@H]2NC(=O)[C@H](CC(=O)O)NC(=O)[C@H]3CCCN3C(=O)[C@H](CCC(=O)O)NC(=O)[C@@H](NC(=O)[C@H](Cc3ccc(O)cc3)NC(=O)[C@@H](NC(=O)CN3CCC(NC(=O)CN4CCN(CC(=O)O)CCN(CC(=O)O)CCN(CC(=O)O)CC4)CC3)C(C)C)CSCc3cccc(c3)CSC[C@@H](C(N)=O)NC(=O)[C@H](CO)NC(=O)[C@H](Cc3c[nH]c4ccccc34)NC(=O)[C@H]([C@@H](C)O)NC(=O)[C@H](CC(C)C)NC2=O)c1 [3BP-4362] ({DOTA}-[X2]VYCE[dP]D[X25]LTWSC-NH2; linker 4-13 via mXylylene)
C (t1/2 between 2.1 and 5.0 minutes)	< 10	10 to 79.4	CC(C)C[C@@H]1NC(=O)[C@H](Cc2cccc(NC(=O)COCC(=O)O)c2)NC(=O)[C@H](CC(=O)O)NC(=O)[C@H]2CCCN2C(=O)[C@H](CCC(=O)O)NC(=O)[C@@H](NC(=O)[C@H](Cc2ccc(O)cc2)NC(=O)[C@@H](NC(=O)CN2CCC(NC(=O)CN3CCN(CC(=O)O)CCN(CC(=O)O)CCN(CC(=O)O)CC3)CC2)C(C)C)CSCc2cccc(c2)CSC[C@@H](C(N)=O)NC(=O)[C@H](CO)NC(=O)[C@H](Cc2c[nH]c3ccccc23)NC(=O)[C@H]([C@@H](C)O)NC1=O [3BP-4368] ({DOTA}-[X2]VYCE[dP]D[X15]LTWSC-NH2; linker 4-13 via mXylylene)
A (t1/2>15.0 minutes)	< 10	10 to 79.4	CC(C)C[C@@H]1NC(=O)[C@H](Cc2c[nH]c3ccccc23)NC(=O)[C@H](CCC(=O)NCc2ccc3cn[nH]c3c2)NC(=O)[C@H]2CCCN2C(=O)[C@H](CCC(=O)O)NC(=O)[C@@H](NC(=O)[C@H](Cc2ccc(O)cc2)NC(=O)[C@@H](NC(=O)CN2CCC(NC(=O)CN3CCN(CC(=O)O)CCN(CC(=O)O)CCN(CC(=O)O)CC3)CC2)C(C)C)CSCc2cccc(c2)CSC[C@@H](C(N)=O)NC(=O)[C@H](CO)NC(=O)[C@H](Cc2c[nH]c3ccccc23)NC(=O)[C@H]([C@@H](C)O)NC1=O [3BP-4387] ({DOTA}-[X2]VYCE[dP]E(X29)WLTWSC-NH2; linker 4-13 via mXylylene)
